Results published in patent US7247727B2, “Azaindole thiazolinones” (Hoffmann-La Roche Inc., priority 2004, dated 2007).

Assays:
CDK1/Cyclin B = CDK1/Cyclin B (Homo sapiens, UniProt P06493); assay: CDK1/Cyclin B kinase assay (FlashPlate or HTRF); assay type: biochemical; settings: recombinant human CDK1/Cyclin B, Rb protein substrate; Ki=IC50/(1+[S]/Km)
Protocol: To determine inhibition of CDK1 activity, either FlashPlate™ (NEN™-Life Science Products) assay or HTRF assay was performed. Both types of kinase assays were carried out using recombinant human CDK1/Cyclin B complex. GST-cyclinB (GST-cycB) and CDK1 cDNA clones in baculovirus vectors were provided by Dr. W. Harper at the Baylor College of Medicine, Houston, Tex. Proteins were co-expressed in High Five™ insect cells and the complex was purified on glutathione Sepharose resin (Pharmacia, Piscataway, N.J.) as previously described (Harper, J. W. et al. Cell 1993, 75, 805-816). A 6x-Histidine tagged truncated form of retinoblastoma (Rb) protein (amino acid 386-928) was used as the substrate for the CDK1/Cyclin B assay (the expression plasmid was provided by Dr. Veronica Sullivan, Department of Molecular Virology, Roche Research Centre, Welwyn Garden City, United Kingdom). The Rb protein is a natural substrate for phosphorylation by CDK1 (see Herwig and Strauss Eur. J. Biochem. Vol. 246 (1997) pp. 581-601 and the references cited therein). The expression of the 62Kd protein was under the control of an IPTG inducible promoter in an M15 E. coli strain. Cells were lysed by sonication and purification was carried out by binding lysates at pH 8.0 to a Ni-chelated agarose column pretreated with 1 mM imidazole. The resin was then washed several times with incrementally decreasing pH buffers to pH 6.0, and eluted with 500 mM imidazole. Eluted protein was dialyzed against 20 mM HEPES pH 7.5, 30% glycerol, 200 mM NaCl, and 1 mM DTT. Purified Rb fusion protein stocks were quantitated for protein concentration, aliquoted, and stored at −70° C.
For the FlashPlate kinase assay, 96-well FlashPlates were coated with Rb protein at 10 μg/ml, using 100 μl per well. Plates were incubated at 4° C. overnight or at room temperature for 3 hours on a shaker. […] Plates were washed four times with the wash buffer, sealed, and counted on the TopCount scintillation counter (Packard Instrument Co., Downers Grove, Ill.]. The percent inhibition of Rb phosphorylation, which is a measure of the inhibition of CDK activity, was determined according to the following formula:
[formula] where “test compound” refers to the average counts per minute of the test duplicates, “nonspecific” refers to the average counts per minute when no CDK1/Cyclin B, etc., was added, and “total” refers to the average counts per minute when no compound was added. […] The value of the inhibitor constant Ki is calculated by the following: Ki=IC50/(1+[S]/Km), where [S] is the ATP concentration and Km is Michaelis constant.
The Homogeneous Time Resolved Fluorescence (HTRF) kinase assay was carried out in 96-well polypropylene plates (BD Biosciences, Bedford, Mass.). […]

CDK2/Cyclin E = CDK2/Cyclin E (Homo sapiens, UniProt P24941); assay: CDK2/Cyclin E kinase assay (procedure as for CDK1/Cyclin B); assay type: biochemical; settings: CDK2/Cyclin E complex, Rb protein substrate; Ki=IC50/(1+[S]/Km)
Protocol: For the FlashPlate kinase assay, 96-well FlashPlates were coated with Rb protein at 10 μg/ml, using 100 μl per well. Plates were incubated at 4° C. overnight or at room temperature for 3 hours on a shaker. To control for nonspecific phosphorylation, one row of wells was coated with 100 μl/well coating buffer (20 mM HEPES, 0.2 M NaCl). Plates were then washed twice with wash buffer (0.01% Tween 20 in phosphate-buffered saline). Compounds to be tested (“test compounds”) were added to the wells at 5× final concentration. Reactions were initiated by immediate addition of 40 μl reaction mix (25 mM HEPES, 20 mM MgCl2, 0.002% Tween 20, 2 mM DTT, 1 μM ATP, 4 nM 33P-ATP) and a sufficient amount of enzyme to give counts that were at least 10-fold above background. Plates were incubated at room temperature on a shaker for 30 minutes. Plates were washed four times with the wash buffer, sealed, and counted on the TopCount scintillation counter (Packard Instrument Co., Downers Grove, Ill.]. The percent inhibition of Rb phosphorylation, which is a measure of the inhibition of CDK activity, was determined according to the following formula:
[formula] where “test compound” refers to the average counts per minute of the test duplicates, “nonspecific” refers to the average counts per minute when no CDK1/Cyclin B, etc., was added, and “total” refers to the average counts per minute when no compound was added. The IC50 value is the concentration of test compound that reduces by 50% the protein-kinase induced incorporation of the radiolabel under the test conditions described. The value of the inhibitor constant Ki is calculated by the following: Ki=IC50/(1+[S]/Km), where [S] is the ATP concentration and Km is Michaelis constant.
The Homogeneous Time Resolved Fluorescence (HTRF) kinase assay was carried out in 96-well polypropylene plates (BD Biosciences, Bedford, Mass.). Test compounds were first dissolved in DMSO, and then diluted in kinase assay buffer 1 (25 mM HEPES, pH7.0, 8 mM MgCl2, 1.5 mM DTT, and 162 μM ATP) with DMSO concentration at 15%. The CDK1/Cyclin B enzyme was diluted in kinase assay buffer 2 (25 mM HEPES, pH 7.0, 8 mM MgCl2, 0.003% Tween 20, 0.045% BSA, 1.5 mM DTT, and 0.675 μM Rb protein). To initiate the kinase reaction, 20 μL of compound solution was mixed with 40 μL of CDK1/Cyclin B solution in assay plates with final concentration of CDK1/Cyclin B and Rb at 0.1 μg/mL and […], respectively, and incubated at 37° C. for 30 min. […] At the completion of the incubation, 35 μL of reaction mixture was transferred to fresh 384-well black polystyrene plates (Corning Incorporated, Corning, N.Y.) and read on a fluorescent plate reader at excitation wavelength of 340 nm and emission wavelength of 665/615 nm. […]

Sequence of CDK1/Cyclin B (P06493 whole entry, the tested form may be a part): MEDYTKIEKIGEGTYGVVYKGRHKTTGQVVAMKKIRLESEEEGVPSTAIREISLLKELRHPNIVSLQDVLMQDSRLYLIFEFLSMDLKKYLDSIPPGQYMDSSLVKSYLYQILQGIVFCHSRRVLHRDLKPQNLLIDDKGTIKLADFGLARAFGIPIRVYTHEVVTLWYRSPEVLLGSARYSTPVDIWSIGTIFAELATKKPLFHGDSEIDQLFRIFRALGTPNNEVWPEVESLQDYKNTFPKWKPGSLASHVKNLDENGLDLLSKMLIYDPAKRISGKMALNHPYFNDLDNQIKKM
Sequence of CDK1/Cyclin B (P14635 whole entry partner, the tested form may be a part): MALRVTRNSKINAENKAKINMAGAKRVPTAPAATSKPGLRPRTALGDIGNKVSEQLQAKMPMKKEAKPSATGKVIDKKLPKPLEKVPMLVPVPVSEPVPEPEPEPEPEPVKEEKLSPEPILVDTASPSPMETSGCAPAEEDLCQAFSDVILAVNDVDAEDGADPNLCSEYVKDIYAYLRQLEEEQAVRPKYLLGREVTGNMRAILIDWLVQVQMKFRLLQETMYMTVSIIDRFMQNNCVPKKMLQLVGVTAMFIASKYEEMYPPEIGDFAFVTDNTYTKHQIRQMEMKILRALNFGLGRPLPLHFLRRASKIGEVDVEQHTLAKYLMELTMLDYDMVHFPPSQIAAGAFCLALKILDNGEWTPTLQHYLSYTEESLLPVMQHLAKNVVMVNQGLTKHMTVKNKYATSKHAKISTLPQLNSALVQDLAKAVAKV

| melting point [°C] | Ki (CDK1/Cyclin B) [µM] | Ki (CDK2/Cyclin E) [µM] | SMILES |
| --- | --- | --- | --- |
| 243 to 246 |  |  | O=C1N=C(NCc2cccs2)S/C1=C\c1c[nH]c2ncccc12 [Example 1, 5-[1-(1H-Pyrrolo[2,3-b]pyridin-3-yl)-meth-(Z)-ylidine]-2-[(thiophen-2-ylmethyl)-amino]-thiazol-4-one] |
| 317 to 319 |  |  | O=C1N=C(N[C@@H](CO)c2ccccc2)S/C1=C\c1c[nH]c2ncccc12 [Example 3, 2-(2-Hydroxy-1-(R)-phenyl-ethylamino)-5-[1-(1H-pyrrolo[2,3-b]pyridin-3-yl)-meth-(Z)-ylidine]-thiazol-4-one] |
| 318 to 320 |  |  | O=C1N=C(NCc2ccc(F)c(Cl)c2)S/C1=C\c1c[nH]c2ncccc12 [Example 4, 2-(3-Chloro-4-fluorobenzylamino)-5-[1-(1H-pyrrolo[2,3-b]pyridin-3-yl)-meth-(Z)-ylidine]-thiazol-4-one] |
| 308 to 310 | 0.01 | 0.017 | O=C1N=C(NC2C[C@@H]2c2ccccc2)S/C1=C\c1c[nH]c2ncccc12 (stereo partly drawn) [Example 5, 2-((1R,2S)-2-Phenyl-cyclopropylamino)-5-[1-(1H-pyrrolo[2,3-b]pyridin-3-yl)-meth-(Z)-ylidine]-thiazol-4-one] |
| 269 to 271 |  |  | CC(C)[C@H](CO)NC1=NC(=O)/C(=C/c2c[nH]c3ncccc23)S1 [Example 6, 2-(1-(R)-Hydroxymethyl-2-methylpropylamino)-5-[1-(1H-pyrrolo[2,3-b]pyridin-3-yl)-meth-(Z)-ylidine]-thiazol-4-one] |
| 243.7 to 246.8 |  |  | CC(=O)OC[C@H](NC1=NC(=O)/C(=C/c2c[nH]c3ncccc23)S1)c1ccccc1 [Example 7, Acetic Acid 2-[4-oxo-5-(1H-pyrrolo[2,3,b]pyridine-3-ylmethylene)-4,5-dihydro-thiazol-2-ylamino]-2-(R)-phenyl-ethyl ester] |
|  | 0.048 | 0.018 | Cc1ccsc1CNC1=NC(=O)/C(=C/c2c[nH]c3ncccc23)S1 [Example 10, 2-[(3-Methyl-thiophen-2-ylmethyl)-amino)-5-[1-(1H-pyrrolo[2,3-b]pyridin-3-yl)-meth-(Z)-ylidine]-thiazol-4-one] |
|  | 0.83 | 0.252 | NC1=NC(=O)/C(=C/c2c[nH]c3ncccc23)S1 [Example 15, 2-Amino-5-[1-(1H-pyrrolo[2,3-b]pyridin-3-yl)-meth-(Z)-ylidene]-thiazol-4-one] |
|  | 1.15 | 0.187 | COc1ccccc1NC1=NC(=O)/C(=C/c2c[nH]c3ncccc23)S1 [Example 18, 2-(2-Methoxy-phenylamino)-5-[1-(1H-pyrrolo[2,3-b]pyridin-3-yl)-meth-(Z)-ylidene]-thiazol-4-one] |
